Consider one compound from publication PMC5784824 (Journal of immunology (Baltimore, Md. : 1950), 2017).

The target in assay [1] is T1, hP2X4 (Homo sapiens, UniProt Q99571).
T1 sequence (Q99571 1-388): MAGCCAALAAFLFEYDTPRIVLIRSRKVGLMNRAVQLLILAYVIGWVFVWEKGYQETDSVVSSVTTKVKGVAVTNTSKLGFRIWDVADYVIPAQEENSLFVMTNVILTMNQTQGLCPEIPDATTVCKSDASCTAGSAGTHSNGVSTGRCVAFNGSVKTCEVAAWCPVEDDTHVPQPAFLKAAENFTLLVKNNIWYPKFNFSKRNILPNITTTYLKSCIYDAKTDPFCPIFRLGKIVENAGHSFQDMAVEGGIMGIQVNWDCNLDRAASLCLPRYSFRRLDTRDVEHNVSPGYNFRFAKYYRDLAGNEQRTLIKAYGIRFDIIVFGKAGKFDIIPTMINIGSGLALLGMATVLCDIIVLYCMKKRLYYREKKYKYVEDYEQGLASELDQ
Kind of assay: Fura-2 intracellular Ca2+ measurement in over-expressing […]1 cells. It counts as cell-based. The note with it: agonist; pH 7.4; 1.5 mM CaCl2 buffer.

In assay [2] the target is T2, hP2X7 (Homo sapiens, UniProt Q99572).
T2 sequence (Q99572 1-595): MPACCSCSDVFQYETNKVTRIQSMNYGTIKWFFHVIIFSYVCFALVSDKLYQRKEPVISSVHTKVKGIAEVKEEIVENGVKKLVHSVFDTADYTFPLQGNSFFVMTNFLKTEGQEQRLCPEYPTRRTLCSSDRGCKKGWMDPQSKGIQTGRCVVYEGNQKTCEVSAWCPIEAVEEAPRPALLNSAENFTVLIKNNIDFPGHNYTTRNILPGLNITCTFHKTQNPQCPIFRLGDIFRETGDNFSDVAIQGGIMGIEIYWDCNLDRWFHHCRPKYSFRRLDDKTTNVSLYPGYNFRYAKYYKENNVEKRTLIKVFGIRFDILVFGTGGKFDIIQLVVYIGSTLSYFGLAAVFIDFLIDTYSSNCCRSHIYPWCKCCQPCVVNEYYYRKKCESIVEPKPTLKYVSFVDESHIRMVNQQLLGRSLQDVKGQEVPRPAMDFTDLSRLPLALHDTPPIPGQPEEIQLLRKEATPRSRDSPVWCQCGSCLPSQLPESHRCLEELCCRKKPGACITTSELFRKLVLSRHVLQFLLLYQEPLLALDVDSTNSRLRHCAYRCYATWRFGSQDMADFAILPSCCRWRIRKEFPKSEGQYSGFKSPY
The description is as above. The note with it: agonist; pH 7.4; 1.5 mM CaCl2 buffer. It is filed as cell-based.

On to `Nc1ncnc2c1ncn2[C@@H]1O[C@H](COP(=O)(O)OP(=O)(O)OP(=O)(O)O)[C@@H](O)[C@H]1O` [ATP], for which the “Ca2+ response (activation) at 100 μM ATP” value in assay [1] is “in over-expressing cells illustrated maximal activation of P2X4 and no activation of P2X7”. In addition, the “Ca2+ response (no activation) at 100 μM ATP” value in assay [2] was “in over-expressing cells illustrated maximal activation of P2X4 and no activation of P2X7”.
